Test results reported in patent US6391848B1, “Soybean protein nutraceuticals” (The Regents of the University of California, priority 1999, dated 2002).

Columns and labels:
[1] = system: carcinogen-treated cultured cells; conditions: in vitro or in vivo; cited from earlier work
hypoacetylated chromatin = test: binding of lunasin to chromatin in cells; type: cell-based
Text: (§1) The lunasin polypeptide also contains a functional RGD (arg-gly-asp) motif.

mammalian cells [2] = test: internalization of lunasin into the cell; type: cell-based
Text: as §1
Chromatin Modification and Tumor Suppression. […] (DePinho,1998; Brehm et al, 1998; Magnaghi-Jaulin, 1998; Pazin and Kadonaga, 1997; Hassig et al, 1997; Laherty et al, 1997). For instance, the retinoblastoma protein Rb is complexed with E2F (a family of transcription factors controlled by Rb) and HDAC1 (the major mammalian histone deacetylase which modulates chromatin structure) in mammalian cells. Rb represses E2F-regulated promoter by recruiting HDAC1 which deacetylates core histones causing a tighter association between DNA and nucleosomes, thus impairing the binding of transcription factors to recognition elements in DNA. The Rb/HDAC/E2F complex could be the target for transforming viruses leading to the release of suppression and a fully transformed state. […] Consequently, gene expression is more or less permanently repressed.

mammalian cells [3] = test: effect on mitosis and kinetochore assembly of mammalian cells; type: cell-based
Text: as §1

cell membrane integrins = test: binding to cell membrane integrins in mammalian cell cultures; type: cell-based; conditions: exogenously applied; through the RGD tripeptide
Text: as §1

carcinogenesis = test: inhibition of carcinogenesis in in vitro and animal models; conditions: comparable dosages and routes of administration; cell and animal studies
Text: Exemplary lunasin-del compounds include (again using N→C nomenclature convention) shown to be effective at inhibiting carcinogenesis in in vitro and animal models include:
BBI is an 8 kDa protein that is known to dimerize in solution.

[4] = system: C3H 10T1/2 mouse fibroblast cells; test: in vitro transformation assay of C3H 10T1/2 cells with carcinogens MCA and DMBA; type: cell-based

Compound	effect on carcinogenesis after administration of the agent is stopped [1]	binding to chromatin (hypoacetylated chromatin; exogenously applied to mammalian cell cultures, lunasin that gets into the nucleus)	binding to chromatin (hypoacetylated chromatin; lunasin gene transfected and expressed inside the cell)	internalization in the cell (mammalian cells [2])	effect on kinetochore assembly (mammalian cells [3]; exogenously applied, internalized lunasin, cells undergo normal mitosis)	effect on mitosis (mammalian cells [3]; when expressed in mammalian cells)	binding to cell membrane integrins (cell membrane integrins)	efficacy when substituted for BBI (carcinogenesis)	concentration of exogenously applied peptide (as low as) that inhibits transformation into tumorous foci ([4]; carcinogens MCA and DMBA, range 10 nM to 10 mM)	prevention of carcinogen-induced tumor formation compared with BBIC ([4]; equimolar amounts)	inhibition of carcinogen-mediated transformation of fibroblast cells into tumorous foci ([4]; exogenous application, carcinogens MCA and DMBA)
CC1=C(/C=C/C(C)=C/C=C/C(C)=C/C=C/C=C(C)/C=C/C=C(C)/C=C/C2=C(C)CCCC2(C)C)C(C)(C)CCC1 [b-carotene]	reversible effect										
lunasin		sufficient to effectively bind regions of hypoacetylated chromatin	preferentially binds to hypoacetylated chromatin	gets internalized in the cell via the RGD motif	appears not to affect kinetochore assembly	antimitotic effect	binds to cell membrane integrins	provides efficacy	10 nM	more effective than BBIC	inhibits the transformation
vitamin E	reversible effect										
